Test results from US9963488B2, “Variants of the lantibiotic MU1140 and other lantibiotics with improved pharmacological properties and structural features” (priority 2012, dated 2018).

What was measured:
[1] = tested on: all Gram positive bacteria against which it was tested; conditions: cited from earlier work
[2] = tested on: S. aureus or Streptococcus pneumoniae; conditions: repeated subculture in medium with sub-lethal concentrations; cited from earlier work
[3] = tested on: vancomycin-resistant Enterococcus faecium (VREF); conditions: cited from earlier work
[4] = tested on: Staphylococcus aureus FA1; experiment: Minimum inhibitory concentration; type: cell-based; conditions: THyex medium; 24 hour incubation; peptide about 90% purity
Method: (§1) Wild-type mutacin 1140, mutacin 1140 with a F1I mutation, mutacin 1140 with a W4A mutation, and mutacin 1140 with a R13D mutation was purified to about 90% purity (measured via HPLC). The minimum inhibitory concentration (MIC) of MU1140 and variants of MU1140 was determined against several bacteria. The MIC is the lowest concentration of MU1140 that will inhibit the visible growth of a microorganism after 24 hour incubation. A lower MIC is an indication of greater inhibitory activity. Preparation of the antimicrobial agent and bacterial inoculum for minimum inhibitory concentrations (MICs) was performed by following the method described in Clinical Laboratory Standard Institute (CLSI) M07-8A with some minor modifications. Streptococcus mutans UA159 was tested overnight in a shaking incubator to maintain uniform dispersion of the bacteria. Clostridium difficile UK1 was tested in an anaerobic chamber at 37° C. The medium used was THyex.

[5] = tested on: Clostridium difficile UK1; experiment: Minimum inhibitory concentration; type: cell-based; conditions: THyex medium; anaerobic chamber at 37° C.; peptide about 90% purity
Method: as §1

[6] = tested on: Micrococcus luteus ATCC10240; experiment: Minimum inhibitory concentration; type: cell-based; conditions: THyex medium; 24 hour incubation; peptide about 90% purity
Method: as §1

[7] = tested on: Streptococcus pneumonia FA1; experiment: Minimum inhibitory concentration; type: cell-based; conditions: THyex medium; 24 hour incubation; peptide about 90% purity
Method: as §1

[8] = tested on: Streptococcus mutans UA159; experiment: Minimum inhibitory concentration; type: cell-based; conditions: THyex medium; overnight in shaking incubator; peptide about 90% purity
Method: as §1

[9] = murine models, cited from earlier work
Staphylococcus aureus = conditions: pilot study; 60 times the LD50 of Staphylococcus aureus administered; cited from earlier work
[10] = tested on: multi-drug resistant strains of S. aureus; conditions: cited from earlier work
[11] = cited from earlier work
S. pneumonia = conditions: cited from earlier work
[12] = tested on: Gram-negative bacteria or yeast; conditions: cited from earlier work

For “Mu1140 Wild-type: wild-type lantibiotic MU1140 (SEQ ID NO:17) produced by Streptococcus mutans strain JH1140 (FKAWXLAXPGAARXGAFNAYA; not fully specified; lantibiotic post-translational modifications; DISULFID (3)..(7); (5)..(5) X is Dha amino acid; DISULFID (8)..(11); MOD_RES (8)..(8) Abu; (14)..(14) X is Dhb amino acid; DISULFID (16)..(21); (19)..(21) lanthionine bridge)”, the “minimum inhibitory concentration (MIC)” value [1] is listed as “submicromolar”, the “development of significant resistance” value [2] is listed as “not observed” and the “mode of antibacterial action” value [3] is listed as “bacteriostatic”. For the same substance, the “MIC Staphylococcus aureus FA1” value [4] was 16, the “MIC Clostridium difficile UK1” value [5] was 16 and the “MIC Micrococcus luteus ATCC10240” value [6] was 0.0625. The “MIC Streptococcus pneumonia FA1” value [7] was 0.5, the “MIC Streptococcus mutans UA159” value [8] was 2 and the toxicity ([9]; intravenous route) was “low toxicity”. For the same substance, the distribution [9] was “distributed into all body compartments”, the efficacy (Staphylococcus aureus) was “efficacy was achieved” and the “mode of antibacterial action” value [10] was “bactericidal”. For the same substance, the cytotoxicity in vitro [11] was “low cytotoxicity”, the “mode of antibacterial action” value (S. pneumonia) was “bactericidal” and the activity [12] was “no activity”.
